Experimental data as given in patent publication US7153875B2, “Heterocyclic derivatives for the treatment of cancer and other proliferative diseases” (Incyte San Diego, priority 2001, dated 2006).

melting point	Compound
238 to 240 °C	O=C1NC(=O)/C(=C/c2ccc(-c3ccc(O)c(C45CC6CC(CC(C6)C4)C5)c3)c(OC(F)(F)F)c2)S1 [Compound 46, 4-[3-(1-Adamantyl)-4-hydroxy-phenyl]-5-triflouromethoxybenzylidene-2,4-thiazolidinedione]
307 to 310 °C	O=C1NC(=O)/C(=C/c2ccc(-c3cc(F)c(O)c(C45CC6CC(CC(C6)C4)C5)c3)nc2)S1 [Compound 37]
253 to 254.5 °C	COCOc1ccc(-c2ccc(/C=C3\SC(=O)NC3=O)cc2)cc1C12CC3CC(CC(C3)C1)C2 [Compound 10, 4-[3-(1-Adamantyl)-4-methoxymethoxyphenyl]-benzylidene-2,4-thiazolidinedione]
262 to 264 °C	O=C1NC(=O)/C(=C/c2ccc(-c3ccc(O)c(C45CC6CC(CC(C6)C4)C5)c3)c([N+](=O)[O-])c2)S1 [Compound 50, 4-[3-(1-Adamantyl)-4-hydroxy-phenyl]-5-nitrobenzylidene-2,4-thiazolidinedione]
307 to 308.5 °C	O=C1NC(=O)/C(=C/c2ccc(-c3ccc(O)c(C45CC6CC(CC(C6)C4)C5)c3)cc2)S1 [Compound 7, 4-[3-(1-Adamantyl)-4-hydroxyphenyl]benzylidene-2,4-thiazolidinedione]
298 to 302 °C	CCOc1cc(/C=C2\SC(=O)NC2=O)ccc1-c1ccc(O)c(C23CC4CC(CC(C4)C2)C3)c1 [Compound 49, 4-[3-(1-Adamantyl)-4-hydroxy-phenyl]-5-ethoxybenzylidene-2,4-thiazolidinedione]
224 to 225 °C	C/C(=C1\SC(=O)NC1=O)c1ccc(-c2ccc(O)c(C34CC5CC(CC(C5)C3)C4)c2)nc1 [Compound 55, (E)-{1-[6-(3-Adamantan-1-yl-4-hydroxy-phenyl)-pyridin-3-yl]-ethylidene}-thiazolidine-2,4-dione]
339 to 342 °C	O=C1NC(=O)/C(=C/c2ccc(-c3cc(Cl)c(O)c(C45CC6CC(CC(C6)C4)C5)c3)nc2)S1 [Compound 43]
307 to 309 °C	O=C1NC(=O)/C(=C/c2ccc(-c3ccc(O)c(C45CC6CC(CC(C6)C4)C5)c3)cc2F)S1 [Compound 42, 4-[3-(1-Adamantyl)-4-hydroxy-phenyl]-6-fluorobenzylidene-2,4-thiazolidinedione]
312 to 314.5 °C	O=C1NC(=O)C(c2ccc3cc(-c4ccc(O)c(C56CC7CC(CC(C7)C5)C6)c4)ccc3c2)S1 (stereo not shown) [Compound 24, 5-[6-(3-[1-Adamantyl]-4-hydroxyphenyl)-naphthalen-2-yl]-2,4-thiazolidinedione]
167 to 169 °C	Nc1cc(/C=C2\SC(=O)NC2=O)ccc1-c1ccc(O)c(C23CC4CC(CC(C4)C2)C3)c1 [Compound 51, 4-[3-(1-Adamantyl)-4-hydroxy-phenyl]-5-aminobenzylidene-2,4-thiazolidinedione]
291 to 293 °C	O=C1NC(=O)/C(=C/c2ccc(-c3cc([N+](=O)[O-])c(O)c(C45CC6CC(CC(C6)C4)C5)c3)nc2)S1 [Compound 53]
256 to 257 °C	CC(C)(C)c1cc(-c2ccc(/C=C3\SC(=O)NC3=O)cc2)ccc1O [Compound 39, 4-[3-(t-Butyl)-4-hydroxy-phenyl]benzylidene-2,4-thiazolidinedione]
313 to 317 °C	COc1ccc(-c2ccc(/C=C3\SC(=S)NC3=O)cc2)cc1C12CC3CC(CC(C3)C1)C2 [Compound 6, 4-[3-(1-Adamantyl)-4-methoxyphenyl]-benzylidene-2-thioxo-4-thiazolidinedione]
224 to 226 °C	O=C1NC(=O)/C(=C/c2ccc(-c3ccc(O)c(C45CC6CC(CC(C6)C4)C5)c3)c(O)c2)S1 [Compound 35, 4-[3-(1-Adamantyl)-4-hydroxy-phenyl]-5-hydroxybenzylidene-2,4-thiazolidinedione]
211 to 216 °C	COc1cc(-c2ccc(/C=C3\SC(=O)NC3=O)cn2)cc(C23CC4CC(CC(C4)C2)C3)c1O [Compound 44]

melting point	Compound
270.5 to 272 °C	O=C1NC(=O)C(Cc2ccc3cc(-c4ccc(O)c(C56CC7CC(CC(C7)C5)C6)c4)ccc3c2)S1 (stereo not shown) [Compound 16, 6-[3-(1-Adamantyl)-4-hydroxyphenyl]-naphthalen-2-yl-methyl-2,4-thiazolidinedione]
251 to 253 °C	COc1ccc(-c2ccc3cc(CC4SC(=O)NC4=O)ccc3c2)cc1C12CC3CC(CC(C3)C1)C2 (stereo not shown) [Compound 9, 6-[3-(1-Adamantyl)-4-methoxyphenyl]-naphthalen-2-yl-methyl-2,4-thiazolidinedione]
275 to 280 °C	Cc1cc(O)c(C23CC4CC(CC(C4)C2)C3)cc1-c1ccc(/C=C2\SC(=O)NC2=O)cc1 [Compound 36, 4-[3-(1-Adamantyl)-4-hydroxy-6-methyl-phenyl]benzylidene-2,4-thiazolidinedione]
205 to 207 °C	COc1ccc(-c2ccc3cc(C4SC(=O)NC4=O)ccc3c2)cc1C12CC3CC(CC(C3)C1)C2 (stereo not shown) [Compound 23, 5-[6-(3-[1-Adamantyl]-4-methoxyphenyl)-naphthalen-2-yl]-2,4-thiazolidinedione]
303 to 304 °C	CC(C)(C)c1cc(-c2ccc(/C=C3\SC(=O)NC3=O)cn2)ccc1O [Compound 40]
> 305 °C (dec.)	Cc1cc(/C=C2\SC(=O)NC2=O)ccc1-c1ccc(O)c(C23CC4CC(CC(C4)C2)C3)c1 [Compound 48, 4-[3-(1-Adamantyl)-4-hydroxy-phenyl]-5-methylbenzylidene-2,4-thiazolidinedione]
> 280 °C (dec.)	O=C1NC(=O)/C(=C/c2ccc(-c3ccc(O)c(C45CC6CC(CC(C6)C4)C5)c3)c(Cl)c2)S1 [Compound 48, 4-[3-(1-Adamantyl)-4-hydroxy-phenyl]-5-chlorobenzylidene-2,4thiazolidinedione]
323 to 328 °C	O=C1NC(=O)/C(=C/c2ccc(-c3cc(Cl)c(O)c(C45CC6CC(CC(C6)C4)C5)c3)cc2)S1 [Compound 38, 4-[3-(1-Adamantyl)-4-hydroxy-5-chloro-phenyl]benzylidene-2,4-thiazolidinedione]
315 to 318 °C	O=C1NC(=O)/C(=C/c2ccc(-c3ccc(O)c(C45CC6CC(CC(C6)C4)C5)c3)nc2)S1 [Compound 33]
169 to 171 °C	CC(c1ccc(-c2ccc(O)c(C34CC5CC(CC(C5)C3)C4)c2)nc1)C1SC(=O)NC1=O (stereo not shown) [Compound 52, {1-[6-(3-Adamantan-1-yl-4-hydroxy-phenyl)-pyridin-3-yl]-ethyl}-thiazolidine-2,4-dione]
270 to 274 °C	O=C1NC(=O)/C(=C/c2ccc(-c3ccc(O)c(C45CC6CC(CC(C6)C4)C5)c3)c(F)c2)S1 [Compound 41, 4-[3-(1-Adamantyl)-4-hydroxy-phenyl]-5-fluorobenzylidene-2,4-thiazolidinedione]
227 to 228 °C (dec.)	COc1ccccc1-c1cc(-c2ccc(/C=C3\SC(=O)NC3=O)cc2)cc2c1OCO2 [Compound 4, 4-[3-(2-Methoxyphenyl)-4,5-methylenedioxyphenyl]-benzylidene-2,4-thiazolidinedione]
305 to 308 °C	O=C1NC(=O)/C(=C/c2ccc(-c3cc(F)c(O)c(C45CC6CC(CC(C6)C4)C5)c3)cc2)S1 [Compound 34, 4-[3-(1-Adamantyl)-4-hydroxy-5-fluoro-phenyl]benzylidene-2,4-thiazolidinedione]
293 to 295 °C	CC1(c2cc(-c3ccc(/C=C4\SC(=O)NC4=O)cn3)ccc2O)CCCCC1 [Compound 47]
181 to 182 °C	C/C(=C1/SC(=O)NC1=O)c1ccc(-c2ccc(O)c(C34CC5CC(CC(C5)C3)C4)c2)nc1 [Compound 54, (Z)-{1-[6-(3-Adamantan-1-yl-4-hydroxy-phenyl)-pyridin-3-yl]-ethylidene}-thiazolidine-2,4-dione]
